Reference: US20240208901A1, “Deuterated 3,3'-Diselenodipropionic Acid (DSePA) and Its Use as an Anticancer or Radioprotective Agent” (Secretary, Department of Atomic Energy, priority 2022, published 2024)

Columns and labels:
WI-38 cells = assay: Clonogenic assay, radioprotection of WI-38 cells against γ-irradiation; type: cell-based, human; conditions: γ-irradiation 2-12 Gy
Protocol: Further, clonogenic assay is considered as the gold standard method for evaluating the anticancer activity of any compound and is also a good indicator of the in vivo efficacy of any anticancer compound. Therefore, the therapeutic index of DSePA and D-DSePA in A549/WI-38 cells was also validated by employing the clonogenic assay. For this, A549/WI-38 cells were treated with the varying concentrations (0.1-2 μM)/(1-500 μM) of DSePA/D-DSePA for seven days and the survival fraction was calculated by counting the number of surviving clones (FIG. 11A). The plot of survival fraction verses the concentration of DScPA/D-DSCPA was used to estimate the IC50 of above compounds to inhibit the growth of A549/WI-38 cells. […] This clearly confirmed that deuteration of DScPA reduced its toxicity in normal cells without compromising its efficacy in cancer cells. Since anticancer agents are intended to be used in combination with radiation, DSePA/D-DSePA at a treatment concentration of 0.5 μM (dose close to IC50 as determined by clonogenic assay) was combined with varying absorbed doses (2-8 Gy) of γ-irradiation and the effect of combinatorial treatment on the viability of A549 cells was determined by clonogenic assay (FIG. 12A & 12B). For this, A549 cells exposed to the varying absorbed doses (2-8 Gy) of γ-radiation were immediately treated with DScPA/D-DScPA and cultured for seven days prior to clonogenic assay. […] The D10 value of the combinatorial treatment involving DScPA estimated was 4.5 Gy (FIG. 12B). […]
(§1) Clonogenic assay—Clonogenic assay was performed according to the method reported previously. […] After 7 days, colonies were fixed with absolute methanol for 5 min, stained with 0.5% crystal violet for 5 min, washed with distilled water to remove excess stain and counted manually under a stereo microscope. […] The plating efficiency and the survival fraction under irradiated and drug treated conditions were calculated using following formulae: […]
(§2) The plating efficiency of A549 and WI38 cells was calculated by seeding ˜300 and ˜500 cells respectively. […]

A549 cells = assay: Clonogenic assay, combinatorial treatment with γ-irradiation in A549 cells; type: cell-based, human
Protocol: Further, clonogenic assay is considered as the gold standard method for evaluating the anticancer activity of any compound and is also a good indicator of the in vivo efficacy of any anticancer compound. Therefore, the therapeutic index of DSePA and D-DSePA in A549/WI-38 cells was also validated by employing the clonogenic assay. For this, A549/WI-38 cells were treated with the varying concentrations (0.1-2 μM)/(1-500 μM) of DSePA/D-DSePA for seven days and the survival fraction was calculated by counting the number of surviving clones (FIG. 11A). The plot of survival fraction verses the concentration of DScPA/D-DSCPA was used to estimate the IC50 of above compounds to inhibit the growth of A549/WI-38 cells. […] This clearly confirmed that deuteration of DScPA reduced its toxicity in normal cells without compromising its efficacy in cancer cells. Since anticancer agents are intended to be used in combination with radiation, DSePA/D-DSePA at a treatment concentration of 0.5 μM (dose close to IC50 as determined by clonogenic assay) was combined with varying absorbed doses (2-8 Gy) of γ-irradiation and the effect of combinatorial treatment on the viability of A549 cells was determined by clonogenic assay (FIG. 12A & 12B). For this, A549 cells exposed to the varying absorbed doses (2-8 Gy) of γ-radiation were immediately treated with DScPA/D-DScPA and cultured for seven days prior to clonogenic assay. […] The D10 value of the combinatorial treatment involving DScPA estimated was 4.5 Gy (FIG. 12B). Similarly, D10 value of the combinatorial treatment involving D-DSePA estimated was 4 Gy. From these values, the dose modification factor (DMF or the ratio of the D10 of combinatorial treatment to that of D10 of radiation) of DScPA and D-DScPA estimated was 0.87±0.01 and 0.83±0.02 respectively. […] While the objective of radiotherapy is to achieve tumor control, it is also known to cause normal tissue toxicity. Previously, DSePA has been reported to protect normal cells from lethal effects of γ-radiation. Thus radio-protective activity of D-DSePA was compared with DScPA in terms of their abilities to protect non-cancerous lung fibroblast (WI-38) cells against γ-irradiation induced cell death. For this, WI-38 cells were pretreated with DSePA/D-DScPA for 24 h at an identical concentration of 0.5 μM (close to IC50 required to inhibit growth of A549 lung cancer cells by clonogenic assay) and then exposed to varying doses (2-12 Gy) of γ-irradiation. The survival of cells against radiation exposure was estimated by clonogenic assay and the dose response curve was prepared in the presence and absence of drug (DSePA/D-DScPA) (FIG. 12C & 12D). By using this dose response curve, the dose modification factor (DMF or the ratio of the D10 of radiation plus drug and D10 of radiation alone) of DSePA and D-DSePA estimated was 1.12±0.03 and 1.16±0.05 respectively.
as §1, §2

[1] = test system: lung cancer cell lines (A549, H1975 and H3122) versus normal lung cells (WI-38 and WI-26 VA4); assay: Therapeutic index by MTT assay, lung cancer cell lines versus normal lung cells; type: cell-based, human; conditions: for Therapeutic Index (IC50 in normal cell / IC50 in cancer cells): 48 h post-treatment
Protocol: Therefore, D-DSePA was compared with un-deuterated DSePA for its anticancer activity in A549, H1975 and H3122 cell lines which are representative of NSCLC. For this, above cells were treated with the varying concentrations (0.1-100 μM) of DSePA/D-DSePA for 48 h and the cell viability was determined by MTT assay (FIG. 9A-C). The plot of percent (%) cytotoxicity (100-% viability) versus the concentration of DSePA/D-DSePA was used to estimate the half maximum concentration (IC50) of above compounds to inhibit the proliferation of cells. […] Similarly, the toxicity of DSePA/D-DSePA was studied in non-cancerous lung fibroblast cells, WI-38 and WI-26 VA4 in the concentration range of 0.1 to 1000 μM at 48 h post treatment by MTT assay (FIG. 9D and 9E). […] Employing these values, the therapeutic index (IC50 in normal lung cell/IC50 in lung cancer cell) of DSePA and D-DSePA in different pairs of normal versus cancerous cells (viz., A549/WI-38, A549/WI-26 VA4, H1975/WI-38, H1975/WI-26 VA4, H3122/WI-38 and H3122/WI-26 VA4) was calculated (Table-3). […] The average therapeutic index of DSePA and D-DSePA estimated from above study was 11.05±1.5 and 78.7±29.2 respectively (FIG. 10).
MTT Assay—To evaluate the anti-proliferative effect of D-DScPA and DScPA, Cells (˜5×10^3) suspended in 100 μl of complete culture medium were seeded in each well of 96 well plates. The cells were allowed to attach and grow for 24 h, treated with desired concentrations of D-DSePA/DScPA dissolved in culture medium for 48 h and then processed for MTT assay as described in literature. The percentage (%) cytotoxicity was calculated from the decrease in absorbance at 570 nm of treated groups as compared to that of control group. The % cytotoxicity was plotted as a function of the concentration of D-DSePA and DSePA and from this curve, the concentration of D-DSePA/DScPA causing 50% toxicity (IC50) was estimated. The therapeutic index was calculated by normalizing the IC50 concentration of D-DSePA/DSePA in non-cancerous cells to that in cancerous cells.

[2] = test system: non-cancerous human lung fibroblast cells (WI-38 & WI-26 VA4); assay: MTT assay, non-cancerous human lung fibroblast cells (summary statement); type: cell-based; conditions: WI-38 & WI-26 VA4 cells
Text: 3,3′-Disclenodipropionic acid-D8 (D-DSePA, chemical structure shown in FIG. 1) was synthesized by reacting freshly prepared sodium selenide (Na2Se2) and 3-bromopropionic acid-D4 in D2O solvent with 42% yield. The synthesized D-DSePA was purified and characterized by NMR spectroscopy and mass spectrometry. The molecular structure of D-DSePA has been established by single-crystal X-ray diffraction analysis. The treatment of D-DSePA and un-deuterated DSePA inhibited the growth of human NSCLC cells such as A549, H1975 and H3122 with half maximum concentration (IC50) in the range of 5-50 μM by MTT assay. […] Finally, at identical treatment concentration, D-DSePA offered better radioprotection to non-cancerous WI38 cells with a dose modification factor (DMF) of 1.16±0.05 as compared to un-deuterated DScPA with DMF of 1.12±0.03.
MTT Assay—To evaluate the anti-proliferative effect of D-DScPA and DScPA, Cells (˜5×10^3) suspended in 100 μl of complete culture medium were seeded in each well of 96 well plates. […] The percentage (%) cytotoxicity was calculated from the decrease in absorbance at 570 nm of treated groups as compared to that of control group. […] The therapeutic index was calculated by normalizing the IC50 concentration of D-DSePA/DSePA in non-cancerous cells to that in cancerous cells.

## [2H]C([2H])([Se][Se]C([2H])([2H])C([2H])([2H])C(=O)O)C([2H])([2H])C(=O)O [D-DSePA, 3,3′-diselenodipropionic acid-D8]
WI-38 cells; WI-38 cells pretreated 24 h with 0.5 μM drug, clonogenic assay
  dose modification factor (DMF, D10 of radiation plus drug / D10 of radiation alone): 1.16±0.05
WI-38 cells; WI-38 cells, 0.5 μM 24 h pre-treatment
  radioprotective activity in normal lung cells: exhibited radioprotective activity in normal lung cells
A549 cells; 0.5 μM drug immediately after γ-radiation (2-8 Gy)
  dose modification factor (DMF, D10 of combinatorial treatment / D10 of radiation): 0.83±0.02
A549 cells; 0.5 μM with γ-radiation 2-8 Gy
  effect on radiation kill of lung cancer cells: did not protect lung cancer cells from radiation kill
A549 cells; γ-radiation 2-8 Gy then 0.5 μM drug immediately, seven days, radiation alone D10 5 Gy
  D10 value (decimal reduction dose) of the combinatorial treatment: 4 Gy
[1]; A549/WI-26 VA4, MTT assay
  Therapeutic Index (IC50 in normal cell / IC50 in cancer cells): 36.2 ± 1.9
[1]; A549/WI-38, MTT assay
  Therapeutic Index (IC50 in normal cell / IC50 in cancer cells): 65.7 ± 3.3
[1]; H1975/WI-26 VA4, MTT assay
  Therapeutic Index (IC50 in normal cell / IC50 in cancer cells): 119.6 ± 5.9
[1]; H1975/WI-38, MTT assay
  Therapeutic Index (IC50 in normal cell / IC50 in cancer cells): 217.4 ± 10.9
[1]; H3122/WI-26 VA4, MTT assay
  Therapeutic Index (IC50 in normal cell / IC50 in cancer cells): 11.8 ± 0.6
[1]; H3122/WI-38, MTT assay
  Therapeutic Index (IC50 in normal cell / IC50 in cancer cells): 21.5 ± 1.0
[1]; mean of six normal/cancer cell pairs, mean±SEM (n=6), MTT assay
  average therapeutic index: 78.7±29.2
[1]; non-cancerous lung fibroblast versus NSCLC (A549, H1975 and H3122)
  higher therapeutic index as compared to un-deuterated DSePA: ~7 folds
[2]
  IC50 higher as compared to un-deuterated DSePA: 4 to 5 times
